From patent US10519150B2, “Salts of morpholine derivative, crystal forms thereof, processes for producing the same, pharmaceutical compositions including the same, and use thereof” (SHANGHAI PHARMACEUTICALS HOLDING CO., LTD., priority 2015, dated 2019)
Entries after “also recorded” stand apart in the source; their conditions may differ. Structures can show the parent of a compound that is named as a salt.

Legend:
[1] = Solubility test in pure water; type: physicochemical; settings: for Solubility: pure water, 25° C., 5 mg sample; for water solubility: summary statement in description
Description: 5 mg of each of the free base and salts of the morpholine derivative in Examples 1-7 was added with pure water gradually at 25° C., until all the samples were completely dissolved. The solubility of each sample was calculated based on the actual weight of the sample and the amount of water.

[2] = Hygroscopicity test (weight change as humidity increased from 20% to 80%); type: physicochemical; settings: for Weight change in 20%-80% humidity: 5 mg sample, humidity increased from 20% to 80%; for Level (hygroscopicity): 20%-80% humidity
Description: 5 mg of each of the salts of the morpholine derivative in the examples was measured for their weight change as the humidity was increased from 20% to 80%.

[3] = Stability test under oxidation condition; type: physicochemical; settings: for Types of new impurities (type) / The decomposed amount (%): closed container with hydrogen peroxide urea, 40° C., 12 days; for The decomposed amount (%): chiral HPLC vs day 0; for stability under oxidation condition in words: text statement
Description: The stability test was conducted on 10 mg of each of the free base and salts of the morpholine derivative in the examples under oxidation condition.

[4] = Stability test under light condition; type: physicochemical; settings: for The decomposed amount (%): light box 4500 Lx ± 500 Lx, 25° C., 12 days, chiral HPLC vs day 0; for stability under light condition in words: text statement
Description: The stability test was carried out on 10 mg of each of the free base, salts of the morpholine derivative in Examples 1-6 under light condition.

[5] = Dynamic Vapor Sorption Analysis (DVS); type: physicochemical; settings: for hygroscopicity in words: text statement
Description: Dynamic Vapor Sorption Analysis (DVS) data was taken from a TA Instruments Q5000 TGA, instrument control software was Thermal Advantage, and analysis software was Universal Analysis. Generally, 1 to 10 mg of the sample was placed in a platinum crucible, the TA software generally recorded the weight change of the sample as the relative humidity changed from 0% to 80% to 0%. According to the specific conditions of the sample, different adsorption and desorption steps might also be applied to the sample.

[6] = background statement on prior-art free base; cited from earlier work
[7] = background statement on prior-art free base; cited from earlier work; remark: listed apart in the source

SMILES	Solubility [1] [mg/mL]	water solubility [1] [mg/mL]	Weight change in 20%-80% humidity [2] [%]	Types of new impurities (type) [3] [type]	The decomposed amount (%) [3] [%]	The decomposed amount (%) [4] [%]	stability under light condition in words [4]	DVS weight change in a range of 20%-80% humidity [5]	Level (hygroscopicity) [2]	hygroscopicity in words [5]	other results
COC(=O)NCCCn1nc([C@@H](C)N(C(=O)[C@H]2CNCCO2)C2CC2)c2ccc(C)nc21 [morpholine derivative malate]	100	~100	1.70	2	8.46	2.05	better stability	about 1.2%			stability under oxidation condition in words [3]: better stability
COC(=O)NCCCn1nc([C@@H](C)N(C(=O)[C@H]2CNCCO2)C2CC2)c2ccc(C)nc21 [morpholine derivative tartrate]		50 to 300									
COC(=O)NCCCn1nc([C@@H](C)N(C(=O)[C@H]2CNCCO2)C2CC2)c2ccc(C)nc21 [morpholine derivative free base, methyl (3-(3-((R)-1-((R)—N-cyclopropylmorpholine-2-carboxamido)ethyl)-6-methyl-1H-pyrazolo[3,4-b]pyridin-1-yl)n-propyl)carbamate, reference compound]	5 to 10			6	38.0	100			difficult		water solubility in words [6]: poor water solubility; oxidation stability in words [7]: relatively easy to be oxidized
COC(=O)NCCCn1nc([C@@H](C)N(C(=O)[C@H]2CNCCO2)C2CC2)c2ccc(C)nc21 [morpholine derivative tartrate dihydrate]	100		9.05						easy	relatively hydroscopic	DVS weight change in a range of 0%-80% humidity ([5]; 0%-80% humidity): about 11.06%
COC(=O)NCCCn1nc([C@@H](C)N(C(=O)[C@H]2CNCCO2)C2CC2)c2ccc(C)nc21 [morpholine derivative acetate]	150 to 300	150 to 300	21.30	5	95.71		good thermal stability			deliquesced	DVS weight loss during the drying stage ([5]; 0% of the initial humidity): about 5%; DVS moisture absorbed, amount of its weight ([5]; 20% to 60% humidity): 6.4%; DVS moisture absorbed, amount of its weight ([5]; 90% of humidity): 40%
COC(=O)NCCCn1nc([C@@H](C)N(C(=O)[C@H]2CNCCO2)C2CC2)c2ccc(C)nc21 [morpholine derivative hydrochloride]	>500	> 500	31.80	6	63.53	5.27	good thermal stability		Very easy	deliquescent; also recorded: very hydroscopic	DVS water absorbed in 0% to 60% RH ([5]; 0% to 60% RH): 15%
COC(=O)NCCCn1nc([C@@H](C)N(C(=O)[C@H]2CNCCO2)C2CC2)c2ccc(C)nc21 [morpholine derivative tartrate crystal form A]	100		1.50	6	17.93	2.14		about 1.5%	difficult	hardly hydroscopic	stability under light condition in words ([4]; listed as crystal form A): equivalent stability; hygroscopicity in words ([5]; listed as crystal form A): hardly hydroscopic
COC(=O)NCCCn1nc([C@@H](C)N(C(=O)[C@H]2CNCCO2)C2CC2)c2ccc(C)nc21 [morpholine derivative tartrate crystal form B]	150 to 300		6.58	4	3.24	3.61		about 7%	easy	relatively hydroscopic	stability under oxidation condition in words ([3]; listed as crystal form B): more stable than crystal form A; stability under light condition in words ([4]; listed as crystal form B): equivalent stability; hygroscopicity in words ([5]; listed as crystal form B): relatively hydroscopic
COC(=O)NCCCn1nc([C@@H](C)N(C(=O)[C@H]2CNCCO2)C2CC2)c2ccc(C)nc21 [morpholine derivative naphthalene disulfonate]	>500	> 500		7	51.47	12.58	good thermal stability		Very easy	very hydroscopic	
